Results taken from PubChem BioAssay AID1259407 (Chemical Carcinogenesis Research Information System (CCRIS), 2018).
Activity calls are given as the source filed them. The rule behind the calls is not given here.

System: CCRIS mutagenicity, Ames/micronucleus/aberration tests
Assay: CCRIS mutagenicity studies
[1] = End Point: IN VITRO CHROMOSOMAL ABERRATIONS, Test System: HUMAN PERIPHERAL LYMPHOCYTES, Metabolic Activation: NONE
[2] = Test System: AMES SALMONELLA TYPHIMURIUM, Strain/Indicator: TA100, Metabolic Activation: NONE, Method: STANDARD PLATE

O=C(O)/C=C/C=C/C(=O)O
mutagenic call [1]: active; positive (ploidy changes)
mutagenic call (End Point: IN VITRO CHROMOSOMAL ABERRATIONS, Test System: HUMAN PERIPHERAL LYMPHOCYTES, Metabolic Activation: NONE, Method: FISH- DUAL COLOR PROBES): inactive; negative for translocations
mutagenic call (Test System: AMES SALMONELLA TYPHIMURIUM, Strain/Indicator: TA97, Metabolic Activation: NONE, Method: PREINCUBATION): inactive; negative
mutagenic call (Test System: AMES SALMONELLA TYPHIMURIUM, Strain/Indicator: TA97, Metabolic Activation: RAT, LIVER, S-9, AROCLOR 1254, Method: PREINCUBATION): inactive; negative
mutagenic call (Test System: AMES SALMONELLA TYPHIMURIUM, Strain/Indicator: TA97, Metabolic Activation: RAT, LIVER, S-9, PHENOBARBITAL AND 5,6-BENZOFLAVONE, Method: PREINCUBATION): inactive; negative
mutagenic call (Test System: AMES SALMONELLA TYPHIMURIUM, Strain/Indicator: TA98, Metabolic Activation: NONE, Method: PREINCUBATION): inactive; negative
mutagenic call (Test System: AMES SALMONELLA TYPHIMURIUM, Strain/Indicator: TA98, Metabolic Activation: RAT, LIVER, S-9, AROCLOR 1254, Method: PREINCUBATION): inactive; negative
mutagenic call (Test System: AMES SALMONELLA TYPHIMURIUM, Strain/Indicator: TA98, Metabolic Activation: RAT, LIVER, S-9, PHENOBARBITAL AND 5,6-BENZOFLAVONE, Method: PREINCUBATION): inactive; negative
mutagenic call (Test System: AMES SALMONELLA TYPHIMURIUM, Strain/Indicator: TA100, Metabolic Activation: NONE, Method: PREINCUBATION): inactive; negative
mutagenic call (Test System: AMES SALMONELLA TYPHIMURIUM, Strain/Indicator: TA100, Metabolic Activation: RAT, LIVER, S-9, AROCLOR 1254, Method: PREINCUBATION): inactive; negative
mutagenic call (Test System: AMES SALMONELLA TYPHIMURIUM, Strain/Indicator: TA100, Metabolic Activation: RAT, LIVER, S-9, PHENOBARBITAL AND 5,6-BENZOFLAVONE, Method: PREINCUBATION): inactive; negative
mutagenic call (Test System: AMES SALMONELLA TYPHIMURIUM, Strain/Indicator: TA102, Metabolic Activation: NONE, Method: PREINCUBATION): inactive; negative
mutagenic call (Test System: AMES SALMONELLA TYPHIMURIUM, Strain/Indicator: TA102, Metabolic Activation: RAT, LIVER, S-9, AROCLOR 1254, Method: PREINCUBATION): inactive; negative
mutagenic call (Test System: AMES SALMONELLA TYPHIMURIUM, Strain/Indicator: TA102, Metabolic Activation: RAT, LIVER, S-9, PHENOBARBITAL AND 5,6-BENZOFLAVONE, Method: PREINCUBATION): inactive; negative
mutagenic call (Test System: AMES SALMONELLA TYPHIMURIUM, Strain/Indicator: TA104, Metabolic Activation: NONE, Method: PREINCUBATION): inactive; negative
mutagenic call (Test System: AMES SALMONELLA TYPHIMURIUM, Strain/Indicator: TA104, Metabolic Activation: RAT, LIVER, S-9, AROCLOR 1254, Method: PREINCUBATION): inactive; negative
mutagenic call (Test System: AMES SALMONELLA TYPHIMURIUM, Strain/Indicator: TA104, Metabolic Activation: RAT, LIVER, S-9, PHENOBARBITAL AND 5,6-BENZOFLAVONE, Method: PREINCUBATION): inactive; negative
mutagenic call (Test System: AMES SALMONELLA TYPHIMURIUM, Strain/Indicator: TA1535, Metabolic Activation: NONE, Method: PREINCUBATION): inactive; negative
mutagenic call (Test System: AMES SALMONELLA TYPHIMURIUM, Strain/Indicator: TA1535, Metabolic Activation: RAT, LIVER, S-9, AROCLOR 1254, Method: PREINCUBATION): inactive; negative
mutagenic call (Test System: CHINESE HAMSTER V-79, Strain/Indicator: V-79 (HGPRT)/8-AZAGUANINE, Metabolic Activation: NONE): inactive; negative
mutagenic call (Test System: CHINESE HAMSTER V-79, Strain/Indicator: V-79/6-THIOGUANINE, Metabolic Activation: NONE): inactive; negative
mutagenic call (Test System: E. COLI, Strain/Indicator: WP2 UVRA, Metabolic Activation: NONE, Method: PREINCUBATION): inactive; negative
mutagenic call (Test System: E. COLI, Strain/Indicator: WP2 UVRA, Metabolic Activation: RAT, LIVER, S-9, AROCLOR 1254, Method: PREINCUBATION): inactive; negative

CCCCOc1cc(Br)ccc1C(=O)NOC(C)=O
mutagenic call [2]: active; positive
mutagenic call (Test System: AMES SALMONELLA TYPHIMURIUM, Strain/Indicator: TA100, Metabolic Activation: RAT, S-9, AROCLOR, Method: STANDARD PLATE): active; positive

COc1nsc2ccc(N)cc12
mutagenic call (Test System: AMES SALMONELLA TYPHIMURIUM, Strain/Indicator: TA100, Metabolic Activation: S-9, Method: STANDARD PLATE): active; positive

C[C@]12CC[C@@H]3c4ccc(O)cc4CC[C@H]3C13CCC2(O)CC3
mutagenic call [1]: inactive; negative at 20-24 hr; positive (high doses) at 48 hr
mutagenic call (End Point: IN VITRO CHROMOSOMAL ABERRATIONS, Test System: HUMAN PERIPHERAL LYMPHOCYTES, Metabolic Activation: RAT, LIVER, S-9, AROCLOR 1254): inactive; negative

Cc1cccc2c1ccc1ccccc12
mutagenic call (Test System: AMES SALMONELLA TYPHIMURIUM, Strain/Indicator: TA97, Metabolic Activation: NONE, Method: STANDARD PLATE): inactive; negative
mutagenic call (Test System: AMES SALMONELLA TYPHIMURIUM, Strain/Indicator: TA97, Metabolic Activation: RAT, LIVER, S-9, PCB, Method: STANDARD PLATE): active; positive
mutagenic call (Test System: AMES SALMONELLA TYPHIMURIUM, Strain/Indicator: TA98, Metabolic Activation: NONE, Method: STANDARD PLATE): inactive; negative
mutagenic call (Test System: AMES SALMONELLA TYPHIMURIUM, Strain/Indicator: TA98, Metabolic Activation: RAT, LIVER, S-9, PCB, Method: STANDARD PLATE): active; positive
mutagenic call [2]: inactive; negative
mutagenic call (Test System: AMES SALMONELLA TYPHIMURIUM, Strain/Indicator: TA100, Metabolic Activation: RAT, LIVER, S-9, PCB, Method: STANDARD PLATE): active; positive

CC(C)CCC[C@@H](C)[C@H]1CC[C@H]2[C@@H]3CC=C4CCCC[C@]4(C)[C@H]3CC[C@]12C
mutagenic call (Test System: AMES SALMONELLA TYPHIMURIUM, Strain/Indicator: TA97A, Metabolic Activation: NONE, Method: STANDARD PLATE): inactive; negative
mutagenic call (Test System: AMES SALMONELLA TYPHIMURIUM, Strain/Indicator: TA97A, Metabolic Activation: RAT, LIVER, S-9, AROCLOR 1254, Method: STANDARD PLATE): inactive; negative
mutagenic call [2]: inactive; negative
mutagenic call (Test System: AMES SALMONELLA TYPHIMURIUM, Strain/Indicator: TA100, Metabolic Activation: RAT, LIVER, S-9, AROCLOR 1254, Method: STANDARD PLATE): inactive; negative
mutagenic call (Test System: AMES SALMONELLA TYPHIMURIUM, Strain/Indicator: TA102, Metabolic Activation: NONE, Method: STANDARD PLATE): inactive; negative
mutagenic call (Test System: AMES SALMONELLA TYPHIMURIUM, Strain/Indicator: TA102, Metabolic Activation: RAT, LIVER, S-9, AROCLOR 1254, Method: STANDARD PLATE): inactive; negative
mutagenic call (Test System: AMES SALMONELLA TYPHIMURIUM, Strain/Indicator: TA104, Metabolic Activation: NONE, Method: STANDARD PLATE): inactive; negative
mutagenic call (Test System: AMES SALMONELLA TYPHIMURIUM, Strain/Indicator: TA104, Metabolic Activation: RAT, LIVER, S-9, AROCLOR 1254, Method: STANDARD PLATE): inactive; negative
